Test results: US12077503B2, “Substituted cyclic amides and their use as herbicides” (FMC CORPORATION, priority 2015, dated 2024)

Experiments:
Type in all cases: in vivo
[1] = test system: ryegrass, Italian (Italian ryegrass, Lolium multiflorum); experiment: Test A postemergence; conditions: Lolium multiflorum, post-emergence, 240 h; for pest or weed control at 125 g/ha: 125 g ai/ha, postemergence, visual injury on 0 to 100 scale (0 no effect, 100 complete control), approx. 10 d, read-out: Ryegrass, Italian plant response rating; for pest or weed control at 31 g/ha: Postemergence, 31 g ai/ha, visual injury after approx. 10 d, 0 to 100 scale, 0 no effect, 100 complete control, read-out: Plant response rating, Ryegrass, Italian
In short: (§1)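 Visual injury scores from 0, no effect, to 100, complete control, were assigned versus untreated controls roughly 10 d after treatment in the greenhouse. Test chemicals, formulated with surfactant in a non-phytotoxic solvent, were applied to planted seeds as a preemergence soil spray or postemergence to one- to two-leaf plants 2 to 10 cm tall, in loam–sand soil.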

[2] = test system: Galium (catchweed bedstraw, Galium aparine); experiment: Test A postemergence; conditions: Galium, post-emergence, 240 h; for pest or weed control at 125 g/ha: 125 g ai/ha, postemergence, visual injury on 0 to 100 scale (0 no effect, 100 complete control), approx. 10 d, read-out: Galium plant response rating; for pest or weed control at 31 g/ha: Postemergence, 31 g ai/ha, visual injury after approx. 10 d, 0 to 100 scale, 0 no effect, 100 complete control, read-out: Plant response rating, Galium
In short: as §1

[3] = test system: pigweed (Amaranthus retroflexus); experiment: Test A postemergence; conditions: Amaranthus retroflexus, post-emergence, 240 h; for pest or weed control at 125 g/ha: 125 g ai/ha, postemergence, visual injury on 0 to 100 scale (0 no effect, 100 complete control), approx. 10 d, read-out: Pigweed plant response rating; for pest or weed control at 31 g/ha: Postemergence, 31 g ai/ha, visual injury after approx. 10 d, 0 to 100 scale, 0 no effect, 100 complete control, read-out: Plant response rating, Pigweed
In short: as §1

[4] = test system: barnyardgrass (Echinochloa crus-galli); experiment: Test A postemergence; conditions: Echinochloa crus-galli, post-emergence, 240 h; for pest or weed control at 125 g/ha: 125 g ai/ha, postemergence, visual injury on 0 to 100 scale (0 no effect, 100 complete control), approx. 10 d, read-out: Barnyardgrass plant response rating; for pest or weed control at 31 g/ha: Postemergence, 31 g ai/ha, visual injury after approx. 10 d, 0 to 100 scale, 0 no effect, 100 complete control, read-out: Plant response rating, Barnyardgrass
In short: as §1

corn (Zea mays) = experiment: Test A postemergence; conditions: Zea mays, post-emergence, 240 h; for plant injury at 125 g/ha: 125 g ai/ha, postemergence, visual injury on 0 to 100 scale (0 no effect, 100 complete control), approx. 10 d, read-out: Corn plant response rating; for Corn plant response rating (crop injury, 0 = no effect, 100 = complete kill) at 31 g/ha: Postemergence, 31 g ai/ha, visual injury after approx. 10 d, 0 to 100 scale, 100 complete control
In short: as §1

[5] = test system: blackgrass (Alopecurus myosuroides); experiment: Test A postemergence; conditions: Alopecurus myosuroides, post-emergence, 240 h; for pest or weed control at 125 g/ha: 125 g ai/ha, postemergence, visual injury on 0 to 100 scale (0 no effect, 100 complete control), approx. 10 d, read-out: Blackgrass plant response rating; for pest or weed control at 31 g/ha: Postemergence, 31 g ai/ha, visual injury after approx. 10 d, 0 to 100 scale, 0 no effect, 100 complete control, read-out: Plant response rating, Blackgrass
In short: as §1

[6] = test system: giant foxtail (Setaria faberii); experiment: Test A postemergence; conditions: Setaria faberi, post-emergence, 240 h; for pest or weed control at 125 g/ha: 125 g ai/ha, postemergence, visual injury on 0 to 100 scale (0 no effect, 100 complete control), approx. 10 d, read-out: Foxtail, Giant plant response rating; for pest or weed control at 31 g/ha: Postemergence, 31 g ai/ha, visual injury after approx. 10 d, 0 to 100 scale, 0 no effect, 100 complete control, read-out: Plant response rating, Foxtail, Giant
In short: as §1

Kochia (Kochia scoparia) [7] = experiment: Test A postemergence; conditions: Bassia scoparia, post-emergence, 240 h; for pest or weed control at 125 g/ha: 125 g ai/ha, postemergence, visual injury on 0 to 100 scale (0 no effect, 100 complete control), approx. 10 d, read-out: Kochia plant response rating; for pest or weed control at 31 g/ha: Postemergence, 31 g ai/ha, visual injury after approx. 10 d, 0 to 100 scale, 0 no effect, 100 complete control, read-out: Plant response rating, Kochia
In short: as §1

[8] = test system: wheat (Triticum aestivum); experiment: Test A postemergence; conditions: Triticum aestivum, post-emergence, 240 h; for plant injury at 125 g/ha: 125 g ai/ha, postemergence, visual injury on 0 to 100 scale (0 no effect, 100 complete control), approx. 10 d, read-out: Wheat plant response rating; for plant injury at 31 g/ha: Postemergence, 31 g ai/ha, visual injury after approx. 10 d, 0 to 100 scale, 0 no effect, 100 complete control, read-out: Plant response rating, Wheat
In short: as §1

[9] = test system: ragweed (common ragweed, Ambrosia elatior); experiment: Test A postemergence; conditions: Ambrosia artemisiifolia, post-emergence, 240 h; for pest or weed control at 125 g/ha: 125 g ai/ha, postemergence, visual injury on 0 to 100 scale (0 no effect, 100 complete control), approx. 10 d, read-out: Ragweed plant response rating; for pest or weed control at 31 g/ha: Postemergence, 31 g ai/ha, visual injury after approx. 10 d, 0 to 100 scale, 0 no effect, 100 complete control, read-out: Plant response rating, Ragweed
In short: as §1

[10] = test system: ryegrass, Italian (Italian ryegrass, Lolium multiflorum); experiment: Test A preemergence; conditions: Lolium multiflorum, pre-emergence, 240 h, 0 to 100 scale where 0 is no effect and 100 is complete control, read-out: Ryegrass, Italian plant response rating; for pest or weed control at 31 g/ha: 31 g ai/ha, Preemergence; for pest or weed control at 125 g/ha: 125 g ai/ha, preemergence, approx. 10 d
In short: as §1

[11] = test system: pigweed (Amaranthus retroflexus); experiment: Test A preemergence; conditions: Amaranthus retroflexus, pre-emergence, 240 h, 0 to 100 scale where 0 is no effect and 100 is complete control, read-out: Pigweed plant response rating; for pest or weed control at 31 g/ha: 31 g ai/ha, Preemergence; for pest or weed control at 125 g/ha: 125 g ai/ha, preemergence, approx. 10 d
[12] = test system: barnyardgrass (Echinochloa crus-galli); experiment: Test A preemergence; conditions: Echinochloa crus-galli, pre-emergence, 240 h, 0 to 100 scale where 0 is no effect and 100 is complete control, read-out: Barnyardgrass plant response rating; for pest or weed control at 31 g/ha: 31 g ai/ha, Preemergence; for pest or weed control at 125 g/ha: 125 g ai/ha, preemergence, approx. 10 d
In short: as §1

[13] = test system: giant foxtail (Setaria faberii); experiment: Test A preemergence; conditions: Setaria faberi, pre-emergence, 240 h, 0 to 100 scale where 0 is no effect and 100 is complete control, read-out: Foxtail, Giant plant response rating; for pest or weed control at 31 g/ha: 31 g ai/ha, Preemergence; for pest or weed control at 125 g/ha: 125 g ai/ha, preemergence, approx. 10 d
In short: as §1

Kochia (Kochia scoparia) [14] = experiment: Test A preemergence; conditions: Bassia scoparia, pre-emergence, 240 h, 0 to 100 scale where 0 is no effect and 100 is complete control, read-out: Kochia plant response rating; for pest or weed control at 31 g/ha: 31 g ai/ha, Preemergence; for pest or weed control at 125 g/ha: 125 g ai/ha, preemergence, approx. 10 d
In short: as §1

[15] = test system: ragweed (common ragweed, Ambrosia elatior); experiment: Test A preemergence; conditions: Ambrosia artemisiifolia, pre-emergence, 240 h, 0 to 100 scale where 0 is no effect and 100 is complete control, read-out: Ragweed plant response rating; for pest or weed control at 31 g/ha: 31 g ai/ha, Preemergence; for pest or weed control at 125 g/ha: 125 g ai/ha, preemergence, approx. 10 d
In short: as §1

[16] = test system: barnyardgrass (Echinochloa crus-galli); experiment: Test B flooded paddy test; conditions: Echinochloa crus-galli, 250 g ai/ha, Flood; 0 to 100 scale where 0 is no effect and 100 is complete control; read-out: Barnyardgrass plant response rating
In short: (§2)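 Visual ratings (0 none to 100 complete control) are relative to untreated plants, taken 13–15 d after treatment in a greenhouse. Test material went straight into floodwater standing 3 cm above the soil, kept constant, on plants at the 2-leaf stage.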

[17] = test system: sedge, umbrella (small-flower umbrella sedge, Cyperus difformis); experiment: Test B flooded paddy test; conditions: Cyperus difformis, 250 g ai/ha, Flood; 0 to 100 scale where 0 is no effect and 100 is complete control; read-out: Sedge, Umbrella plant response rating
In short: as §2

[18] = test system: ducksalad (Heteranthera limosa); experiment: Test B flooded paddy test; conditions: Heteranthera limosa, 250 g ai/ha, Flood; 0 to 100 scale where 0 is no effect and 100 is complete control; read-out: Ducksalad plant response rating
In short: as §2

rice (Oryra sativa) = experiment: Test B flooded paddy test; conditions: Oryza sativa, 250 g ai/ha, Flood; 0 to 100 scale where 0 is no effect and 100 is complete control; read-out: Rice plant response rating
In short: as §2

| Compound | pest or weed control at 125 g/ha [1] | pest or weed control at 31 g/ha [1] | pest or weed control at 125 g/ha [2] | pest or weed control at 31 g/ha [2] | pest or weed control at 125 g/ha [3] | pest or weed control at 31 g/ha [3] | pest or weed control at 125 g/ha [4] | pest or weed control at 31 g/ha [4] | plant injury at 125 g/ha (corn (Zea mays)) | Corn plant response rating (crop injury, 0 = no effect, 100 = complete kill) at 31 g/ha (corn (Zea mays)) | pest or weed control at 125 g/ha [5] | pest or weed control at 31 g/ha [5] | pest or weed control at 125 g/ha [6] | pest or weed control at 31 g/ha [6] | pest or weed control at 125 g/ha (Kochia (Kochia scoparia) [7]) | pest or weed control at 31 g/ha (Kochia (Kochia scoparia) [7]) | plant injury at 125 g/ha [8] | plant injury at 31 g/ha [8] | pest or weed control at 125 g/ha [9] | pest or weed control at 31 g/ha [9] | further results |
| --- | --- | --- | --- | --- | --- | --- | --- | --- | --- | --- | --- | --- | --- | --- | --- | --- | --- | --- | --- | --- | --- |
| CN1C[C@H](c2cc(C(F)F)cs2)[C@@H](C(=O)Nc2ccc(F)c(F)c2F)C1=O [Compound 1083] | 20% | 0% | 70% | 60% | 20% | 0% | 90% | 90% | 40% | 20% | 60% | 50% | 90% | 80% | 40% | 20% | 40% | 40% | 30% | 0% | pest or weed control at 31 g/ha [10]: 20%; pest or weed control at 125 g/ha [10]: 60%; pest or weed control at 31 g/ha [11]: 0%; pest or weed control at 125 g/ha [11]: 20%; pest or weed control at 31 g/ha [12]: 90%; pest or weed control at 125 g/ha [12]: 100%; pest or weed control at 31 g/ha [13]: 100%; pest or weed control at 125 g/ha [13]: 100%; pest or weed control at 31 g/ha (Kochia (Kochia scoparia) [14]): 20%; pest or weed control at 125 g/ha (Kochia (Kochia scoparia) [14]): 90%; pest or weed control at 31 g/ha [15]: 0%; pest or weed control at 125 g/ha [15]: 80%; pest or weed control at 250 g/ha [16]: 90%; pest or weed control at 250 g/ha [17]: 0%; pest or weed control at 250 g/ha [18]: 95%; pest or weed control at 250 g/ha (rice (Oryra sativa)): 40% |
| CN1C[C@H](c2cc(C(F)F)cs2)[C@@H](C(=O)Nc2ccccc2S(C)(=O)=O)C1=O [Compound 1084] | 0% | 0% | 0% | 0% | 0% | 0% | 60% | 10% | 0% | 0% | 20% | 0% | 50% | 0% | 30% | 0% | 20% | 0% | 0% | 0% | pest or weed control at 31 g/ha [10]: 0%; pest or weed control at 125 g/ha [10]: 10%; pest or weed control at 31 g/ha [11]: 0%; pest or weed control at 125 g/ha [11]: 0%; pest or weed control at 31 g/ha [12]: 0%; pest or weed control at 125 g/ha [12]: 70%; pest or weed control at 31 g/ha [13]: 30%; pest or weed control at 125 g/ha [13]: 100%; pest or weed control at 31 g/ha (Kochia (Kochia scoparia) [14]): 0%; pest or weed control at 125 g/ha (Kochia (Kochia scoparia) [14]): 20%; pest or weed control at 31 g/ha [15]: 0%; pest or weed control at 125 g/ha [15]: 10%; pest or weed control at 250 g/ha [16]: 75%; pest or weed control at 250 g/ha [17]: 0%; pest or weed control at 250 g/ha [18]: 100%; pest or weed control at 250 g/ha (rice (Oryra sativa)): 20% |
